Data from patent US7659394B2 (Pfizer Inc, priority 2004, dated 2010).

Legend:
[1] = biological target: T1, human norepinephrine transporter (Homo sapiens, UniProt P23975); assay: hNET receptor binding ([125I]-RTI-55 radioligand binding); conditions: membranes of HEK-293 cells transfected with human norepinephrine transporter, IC50 converted to Ki by Cheng-Prusoff, read-out: hNET (Ki)
T1 construct: host or cells: HEK-293
Text: (§1) The ability of the compounds of this invention to bind to the hNET and serotonin SERT receptor can be determined using conventional radiolig and receptor binding assays. The receptors can be heterologously expressed in cell lines and experiments conducted in membrane preparations from the cell lines using procedures outlined below. IC50 concentrations can be determined by nonlinear regression of concentration-dependent reduction in specific binding. The Cheng-Prussoff equation can be used to convert the IC50 to Ki concentrations.
Cell pastes of HEK-293 cells transfected with the human norepinephrine transporter were supplied by the Pfizer Ann Arbor Protein Expression and Production group. […] Aliquots of membranes (5 mg/ml protein) were stored in liquid nitrogen until used.
(§2) The reaction was incubated by gentle agitation for 90 min at room temperature and was terminated by filtration through Whatman GF/C filter plates using a Brandel 96-well plate harvester. […] Test compounds were run in duplicate, and specific binding was defined as the difference between binding in the presence and absence of 10 μM desipramine.
(§3) Excel and GraphPad Prism software were used for data calculation and analysis. IC50 values were converted to Ki values using the Cheng-Prusoff equation.

[2] = biological target: T2, human seritonin transporter (Homo sapiens, UniProt P31645); assay: hSERT receptor binding ([125I]-RTI-55 radioligand binding); conditions: membranes of HEK-293 cells transfected with human seritonin transporter, IC50 converted to Ki by Cheng-Prusoff, read-out: SERT (Ki)
T2 construct: host or cells: HEK-293
Text: as §1
Cell pastes of HEK-293 cells transfected with the human seritonin transporter were supplied by the Pfizer Ann Arbor Protein Expression and Production group. […] Aliquots of membranes (5 mg/ml protein) were stored in liquid nitrogen until used.
as §2, with “[…] citalopram.” for “μM desipramine.”
as §3

T2 sequence (P31645 whole entry): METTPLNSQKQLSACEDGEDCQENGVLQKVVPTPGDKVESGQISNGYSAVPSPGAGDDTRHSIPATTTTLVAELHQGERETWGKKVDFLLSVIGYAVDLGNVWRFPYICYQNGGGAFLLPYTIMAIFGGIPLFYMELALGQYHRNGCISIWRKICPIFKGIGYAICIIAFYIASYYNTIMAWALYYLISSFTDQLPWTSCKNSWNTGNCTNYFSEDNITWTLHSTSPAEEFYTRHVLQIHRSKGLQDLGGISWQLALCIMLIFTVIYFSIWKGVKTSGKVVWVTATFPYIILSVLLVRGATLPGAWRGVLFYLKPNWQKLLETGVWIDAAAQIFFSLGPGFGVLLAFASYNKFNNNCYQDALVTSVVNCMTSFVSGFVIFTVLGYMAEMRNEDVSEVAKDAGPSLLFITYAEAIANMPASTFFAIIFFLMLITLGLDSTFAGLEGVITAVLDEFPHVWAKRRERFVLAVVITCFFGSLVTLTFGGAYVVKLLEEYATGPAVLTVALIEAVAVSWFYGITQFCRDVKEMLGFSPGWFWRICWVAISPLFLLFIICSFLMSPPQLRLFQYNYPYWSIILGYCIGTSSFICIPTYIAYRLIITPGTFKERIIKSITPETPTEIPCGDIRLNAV
T1 sequence (P23975 whole entry): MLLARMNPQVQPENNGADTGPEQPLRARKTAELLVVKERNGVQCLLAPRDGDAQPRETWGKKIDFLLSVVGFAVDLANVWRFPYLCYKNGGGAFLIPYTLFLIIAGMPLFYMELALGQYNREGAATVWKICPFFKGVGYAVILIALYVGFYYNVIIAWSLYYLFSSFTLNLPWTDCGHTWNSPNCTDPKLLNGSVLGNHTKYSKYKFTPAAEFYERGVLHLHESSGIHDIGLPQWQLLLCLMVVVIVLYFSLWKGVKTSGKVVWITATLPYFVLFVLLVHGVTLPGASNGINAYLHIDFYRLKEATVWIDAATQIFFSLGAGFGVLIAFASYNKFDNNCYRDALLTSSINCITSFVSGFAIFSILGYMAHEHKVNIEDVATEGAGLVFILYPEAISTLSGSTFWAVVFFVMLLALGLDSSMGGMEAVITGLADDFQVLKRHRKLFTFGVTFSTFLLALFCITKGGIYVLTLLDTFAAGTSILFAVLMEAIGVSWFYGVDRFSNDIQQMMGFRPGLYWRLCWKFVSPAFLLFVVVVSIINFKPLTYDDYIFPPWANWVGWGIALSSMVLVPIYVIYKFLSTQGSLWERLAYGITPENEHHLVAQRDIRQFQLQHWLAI

Row | Ki [1] | Ki [2] | Compound
1 | 211 nM | 5050 nM | CCOc1ccccc1O[C@H](c1cccnc1)[C@H]1CNCCO1 [Example 90, (2R)-2-[(R)-(2-Ethoxy-phenoxy)-pyridin-3-yl-methyl]-morpholine]
2 | 20 nM | 2030 nM | c1ccc([C@H](Oc2cccnc2C2CC2)[C@@H]2CNCCO2)cc1 [Example 150, (2S)-2-[(S)-[(2-cyclopropylpyridin-3-yl)oxy](phenyl)methyl]morpholine]
3 | 4 nM | 2570 nM | CCOc1cccc(F)c1OC(c1ccccc1)[C@@H]1CNCCO1 (stereo partly drawn) [Example 157, (2S)-2-[(2-ethoxy-6-fluorophenoxy)(phenyl)methyl]morpholine]
4 | 71 nM | 763 nM | COc1cccc([C@H](Oc2ccccc2OC(C)C)[C@@H]2CNCCO2)n1 [Example 140, (2S)-2-[(S)-(2-isopropoxyphenoxy)(6-methoxypyridin-2-yl)methyl]morpholine]
5 | 457 nM | 7060 nM | Cc1ccc(C(C)C)c(O[C@@H](c2ccccn2)[C@@H]2CNCCO2)c1 [Example 130, (2S)-2-[(S)-(2-isopropyl-5-methylphenoxy)(pyridin-2-yl)methyl]morpholine]
6 | 359 nM | 2440 nM | FC(F)(F)Oc1ccccc1O[C@@H](c1cccnc1)[C@H]1CNCCO1 [Example 26, (R)-2-[(S)-Pyridin-3-yl-(2-trifluoromethoxy-phenoxy)-methyl]-morpholine]
7 | 4820 nM | 6670 nM | N#Cc1ccccc1O[C@@H](c1ccccn1)[C@@H]1CNCCO1 (single isomer, unassigned) [Example 22 (2S, 3R)]
8 | 9 nM | 8230 nM | CCOc1ccccc1OC(c1nccs1)[C@@H]1CNCCO1 (stereo partly drawn) [Example 180, (2S)-2-[(2-ethoxyphenoxy)(1,3-thiazol-2-yl)methyl]morpholine]
9 | 1460 nM | 9060 nM | FC(F)(F)c1ccccc1O[C@@H](c1ccccn1)[C@@H]1CNCCO1 [Example 133, (2S)-2-{(S)-pyridin-2-yl[2-(trifluoromethyl)phenoxy]methyl}morpholine]
10 | 12 nM | 2520 nM | c1ccc([C@H](Oc2ccccc2C2CC2)[C@@H]2CNCCO2)nc1 [Example 154, (2S)-2-[(S)-(2-cyclopropylphenoxy)(pyridin-2-yl)methyl]morpholine]
11 | 388 nM | 99 nM | Cc1ncccc1O[C@@H](c1ccccc1)[C@@H]1CNCCO1 [Example 131, (2S)-2-[(S)-[(2-methylpyridin-3-yl)oxy](phenyl)methyl]morpholine]
12 | 5 nM | 791 nM | COc1c(F)cccc1OC(c1ccccc1)[C@@H]1CNCCO1 (stereo partly drawn) [Example 168, (2S)-2-[(3-fluoro-2-methoxyphenoxy)(phenyl)methyl]morpholine]
13 | 13 nM | 6070 nM | CC(C)c1ccccc1O[C@@H](c1ccccn1)[C@@H]1CNCCO1 [Example 103, (2S)-2-[(S)-(2-isopropylphenoxy)(pyridin-2-yl)methyl]morpholine]
14 | 69 nM | ≥ 10000 nM | COc1cccc(OC)c1OC(c1ccccc1)[C@@H]1CNCCO1 (stereo partly drawn) [Example 148, (2S)-2-[(2,6-dimethoxyphenoxy)(phenyl)methyl]morpholine]
15 | 40 nM | 2740 nM | CCc1ccnc([C@H](Oc2c(F)cccc2OC)[C@@H]2CNCCO2)c1 [Example 141, (2S)-2-[(S)-(4-ethylpyridin-2-yl) (2-fluoro-6-methoxyphenoxy)methyl]morpholine]

Further lines, the compound ahead of its results:

Row | Compound | Ki [1] | Ki [2]
16 | Fc1ccc(F)c(O[C@@H](c2ccccc2)[C@@H]2CNCCO2)c1 [Example 96, (2S)-2-[(S)-(2,5-difluorophenoxy)(phenyl)methyl]morpholine] | 12 nM | 4450 nM
17 | c1ccc(Cc2ccccc2O[C@@H](c2ccccc2)[C@@H]2CNCCO2)cc1 [Example 9, (S)-2-[(S)-(2-Benzyl-phenoxy)-phenyl-methyl]-morpholine] | 15 nM | 967 nM
18 | Clc1ccc(-c2ccccc2O[C@@H](c2ccccc2)[C@@H]2CNCCO2)cc1 [Example 16, (S)-2-[((S)-4′-Chloro-biphenyl-2-yloxy)-phenyl-methyl]-morpholine] | 99 nM | 4500 nM
19 | Brc1ccccc1OC(c1ccccc1)[C@H]1CNCCO1 (stereo partly drawn) [Example 112, (2R)-2-[(2-bromophenoxy)(phenyl)methyl]morpholine] | 17 nM | 105 nM
20 | CC(Oc1ccccc1Oc1ccc(F)cc1)[C@@H]1CNCCO1 (stereo partly drawn) [Example 151, (2S)-2-{1-[2-(4-fluorophenoxy)phenoxy]ethyl}morpholine] | 4 nM | 3290 nM
21 | COc1cccc(F)c1OC(c1cccnc1)[C@H]1CNCCO1 (mixture of isomers) [Example 202, (2R)-2-[(2-fluoro-6-methoxyphenoxy)(pyridin-3-yl)methyl]morpholine] | 45 nM | 722 nM
22 | OCc1ccccc1O[C@@H](c1ccccc1)[C@@H]1CNCCO1 [Example 85, (2S,3S)-[2-(Morpholin-2-yl-phenyl-methoxy)-phenyl]-methanol] | 37 nM | 869 nM
23 | Fc1ccc(C2CC2)c(O[C@@H](c2ccccn2)[C@@H]2CNCCO2)c1 [Example 164, (2S)-2-[(S)-(2-cyclopropyl-5-fluorophenoxy)(pyridin-2-yl)methyl]morpholine] | 13 nM | 3070 nM
24 | Cc1coc(C(Oc2c(F)cccc2F)[C@@H]2CNCCO2)n1 (mixture of isomers) [Example 134, (2S)-2-[(2,6-difluorophenoxy)(4-methyl-1,3-oxazol-2-yl)methyl]morpholine] | 18 nM | ≥ 10000 nM
25 | Fc1ccccc1O[C@@H](c1ccccc1)[C@H]1CNCCO1 [Example 18, (R)-2-[(S)-(2-Fluoro-phenoxy)-phenyl-methyl]-morpholine] | 133 nM | 72 nM
26 | [O-][n+]1ccccc1O[C@@H](c1ccccc1)[C@@H]1CNCCO1 [Example 29, (S)-2-[((S)-1-Oxy-pyridin-2-yloxy)-phenyl-methyl]-morpholine] | 154 nM | ≥ 10000 nM
27 | COc1cccc(F)c1OC(c1cccnc1)[C@H]1CNCCO1 (mixture of isomers) [Example 31, (2R,3R) and (R)-2-[(S)-(2-Fluoro-6-methoxy-phenoxy)-pyridin-3-yl-methyl]-morpholine] | 85 nM | 348 nM
28 | c1ccc([C@H](Oc2ccccc2-c2ccncc2)[C@@H]2CNCCO2)cc1 [Example 10, (S)-2-[(S)-Phenyl-(2-pyridin-4-yl-phenoxy)-methyl]-morpholine] | 689 nM | ≥ 10000 nM
29 | c1ccc(COc2ccccc2O[C@@H](c2ccccc2)[C@@H]2CNCCO2)cc1 [Example 83, (S)-2-[(S)-(2-Benzyloxy-phenoxy)-phenyl-methyl]-morpholine] | 3.9 nM | 3120 nM
30 | Cc1ccc(-c2ccccc2O[C@@H](c2ccccc2)[C@@H]2CNCCO2)cc1 [Example 82, (S)-2-[(S)-(4′-Methyl-biphenyl-2-yloxy)-phenyl-methyl]-morpholine] | 11 nM | 2610 nM
31 | CS(=O)(=O)c1ccccc1O[C@@H](c1ccccc1)[C@@H]1CNCCO1 [Example 54, (S)-2-[(S)-(2-Methanesulfonyl-phenoxy)-phenyl-methyl]-morpholine] | 1310 nM | ≥ 10000 nM
32 | c1ccc([C@H](Oc2cccc3ccccc23)[C@@H]2CNCCO2)cc1 [Example 12, (S)-2-[(S)-(Naphthalen-1-yloxy)-phenyl-methyl]-morpholine] | 6.7 nM | 6.4 nM
33 | Fc1cccc(F)c1O[C@H](C1=CCCC1)[C@@H]1CNCCO1 [Example 147, (2S)-2-[(R)-cyclopent-1-en-1-yl(2,6-difluorophenoxy)methyl]morpholine] | 2570 nM | 2530 nM
34 | Fc1ccc(Oc2ncccc2OC[C@@H]2CNCCO2)cc1 [Example 32, (S)-2-[2-(4-Fluoro-phenoxy)-pyridin-3-yloxymethyl]-morpholine] | 36 nM | ≥ 10000 nM
35 | Cc1coc(C(Oc2c(F)cccc2F)[C@@H]2CNCCO2)n1 (stereo partly drawn) [Example 173, (2S)-2-[(2,6-difluorophenoxy)(4-methyl-1,3-oxazol-2-yl)methyl]morpholine] | 12 nM | ≥ 10000 nM
36 | Brc1ccccc1O[C@@H](c1ccccc1)[C@@H]1CNCCO1 [Example 4, (S)-2-[(S)-(2-Bromo-phenoxy)-phenyl-methyl]-morpholine] | 1.6 nM | 708 nM
37 | Fc1ccc(O[C@@H](c2ccccc2)[C@@H]2CNCCO2)c(F)c1 [Example 68, (S)-2-[(S)-(2,4-Difluoro-phenoxy)-phenyl-methyl]-morpholine] | 19 nM | 660 nM
38 | Fc1ccc(Oc2ncccc2OC[C@H]2CNCCO2)cc1 [Example 89, (2R)-2-[2-(4-Fluoro-phenoxy)-pyridin-3-yloxymethyl]-morpholine] | 4110 nM | ≥ 10000 nM
